US20250017886A1, “FORMULATIONS AND METHODS FOR INCREASING CREATININE LEVELS IN PLASMA, EXTRACELLULAR FLUID AND/OR INTRACELLULAR COMPARTMENTS” (Vireo Systems, Inc., priority 2023, published 2025)
In brackets after ≈: the same amount, converted by molar mass. Entries after “also recorded” stand apart in the source; their conditions may differ. Where a name gives a salt, the structure may show the parent alone.

Key:
[1] = Saturated aqueous solubility determination (HPLC); type: physicochemical; settings: for Ratio (relative to CM): solubility relative to creatine monohydrate; for solubility at 1.5 h: thermodynamic from solid, deionized water, 25° C.
Description: After 1.5 hour, the saturated solutions were vortexed and 2-ml aliquots removed and centrifuged in microcentrifuge tubes at 11,000 rpm for 5 min. Concentrations were analyzed by HPLC by diluting 500 μL of supernatant with mobile phase (500 μL). The mean±standard deviation of the saturation solubility for each antiviral therapeutic compound is calculated from the corresponding standard curves.

[2] = system: human colon epithelial (Caco-2); assay: Creatinine uptake in Caco-2 cells; type: cell-based; settings: Caco-2, 1 mM, 3-hour period; hydrochloride
[3] = system: human brain endothelial cells (HCMEC/d3); assay: Creatinine uptake in HCMEC/d3 cells; type: cell-based; settings: HCMEC/d3, 1 mM, 3-hour period
Description: In an effort to determine the impact/effectiveness of a formulation made in accordance with the present disclosure on increasing creatinine delivery, different cell types were exposed to several of the formulations in Example 1. More specifically, cellular uptake studies were performed for formulations including CEE and CtB from Example 1. […] In other words, it remains unknown where there is a transporter involved in the accumulation of creatinine. Without being bound by any particular theory, if a transporter is involved for accumulation of creatinine, it may be the organic cation transporter 2 (OCT2) found in kidney tubule epithelial cells. The various cell lines discussed above were first exposed to 1 mM of creatinine (CRN), CEE, and CtB at 37° C. for a 3-hour incubation period at a pH 7.4. After incubation, the assay buffer was collected. The cells were then washed rapidly three times with ice-cold phosphate-buffered saline solution. […] More specifically, the creatinine content in cell lysates was determined using QuantichromTM Creatinine Assay Kit (DICT 500) from Bioassay Systems (Hayward, CA). The assay quantitatively measures creatinine without any pretreatment through an optimized Jaffe method. […] The intensity of the red, measured at 510 nm, is directly proportional to the concentration of creatinine in the sample. […]

[4] = system: hCMEC/d3 microfluidic culture model; assay: Permeability of microfluidic BBB model treated with cancer patient plasma; type: cell-based, human; settings: for permeability coefficient: 1 mM CtB
hBMEC/d3 cells = assay: Bradykinin-induced prostaglandin E2 release (PGE2 ELISA); type: cell-based; settings: for inhibition of prostaglandin (PGE2) release: 1.0 mM, 1-hour preincubation, 10 μM bradykinin, at 6 and 24 hours, compared with 10 μM HOE 140
Description: In an effort to determine the impact/effectiveness of creatinine pronutrient formulations made in accordance with the present disclosure on decreasing prostaglandin release over a 24-hour period due to bradykinin exposure, hBMEC/d3 cells were pre-treated with a creatinine pronutrient of the present disclosure and then exposed to 10 μM bradykinin. More specifically, hBMEC/d3 cells were grown on T25 flasks to confluency. Media was removed and exchanged with endothelial cell media containing 0.1% BSA and (1) 1.0 mM CEE, (2) 1.0 mM creatine t-butyl ester hydrochloride (CtB), or (3) 10 μM HOE 140 (a known BR2 receptor antagonist). After a 1-hour incubation, bradykinin (10 μM) was added and samples of media removed and assayed for prostaglandin E2 (PGE2) at 3, 6 and 24 hours. The amount of PGE 2 secreted into the media by the cells was determined using a PGE2 ELISA and normalized to cell lysate protein content.

[5] = Human single oral dose pharmacokinetics of creatinine (Ostojic et al. 2019); type: in vivo; settings: plasma, oral 3 grams creatinine given with 3 grams creatine nitrate, computed from literature data, read-out: AUC(0-120m) (converted)
Source text: The creatinine data in Table 4 was generated from the data provided in Ostojic et al., Food Sci Nutr. 2019. […] In order to assess the relative bioavailability of the formulations (and to correct for the slightly different doses administered with various forms due to the different molecular weights), the AUC plasma uptake values observed for creatinine and the creatinine pronutrient formulation were entered into the following equation to produce a ratio: […]

[6] = human, oral 3 grams creatinine given with 3 grams creatine nitrate; cited from earlier work
[7] = cited from earlier work
[8] = Rat PK study, plasma levels after creatinine pronutrient dosing; type: in vivo, sprague-dawley male rats
Description: A rat PK study was performed to determine resulting plasma creatinine levels following creatinine pronutrient dosing. […] Levels of creatine, creatinine pronutrient, and creatinine in the plasma were measured over time. In this study, the specific creatinine pronutrient used was creatine ethyl ester hydrochloride. Blood samples were collected over a 4-hour period via femoral artery catheter. Muscle and brain tissue were collected at the end of the study. Liquid chromatography-mass spectrometry (LCMS) was used for analysis of samples. The area under the plasma concentration curve following oral dosing was compared to that obtained following IV administration. The creatinine pronutrient formulation data in Table 4 was generated from the creatinine data gathered in Example 4 using allometric dosing to determine the human dose equivalent for the labeled creatinine pronutrient (for a 70 kg human). In order to assess the relative bioavailability of the formulations (and to correct for the slightly different doses administered with various forms due to the different molecular weights), the AUC plasma uptake values observed for creatinine and the creatinine pronutrient formulation were entered into the following equation to produce a ratio: […]

[9] = system: hCMEC/d3 (human brain endothelial cells); assay: Bradykinin-induced permeability in microfluidic BBB culture model; type: cell-based; settings: 1 mM CEE pretreatment 1-hour
Description: In an effort to determine the impact/effectiveness of creatinine pronutrient formulations made in accordance with the present disclosure, studies examined bradykinin-induced effects on endothelial permeability using a microfluidic blood-brain barrier (BBB) culture model consisting of hCMEC/d3 (human brain endothelial cells) grown on Mimeta microfluidic plates. More specifically, permeability studies were performed using the microfluidic BBB culture model under control conditions and following exposure to a low dose (10 nM) or high dose (10 μM) of bradykinin in either the presence or absence of creatine ethyl ester hydrochloride (CEE) as the creatinine pronutrient.
hCMEC/d3 cells in Mimeta microfluidic plate were pretreated for 1 hour with media or media+1 mM CEE. Thereafter, the cells were treated with a low concentration (10 nM) or high concentration (10 μM) of bradykinin. The permeability of a fluorescent dye (IRdye 800) was assessed after 30 minutes.

COX1 = COX1 (Homo sapiens, UniProt P23219); assay: COX activity, COX1; type: biochemical
Source text: (§1) The effects of the creatinine pronutrient on PGE2 release was not due to the inhibition of prostaglandin synthesis through cyclooxygenase (COX) as production of prostaglandins by either COX1 or COX2 was unaffected by CEE.

COX2 = molecular target: T1, COX2 (Homo sapiens, UniProt P35354); assay: COX activity, COX2; type: biochemical
T1 sequence (P35354 18-604): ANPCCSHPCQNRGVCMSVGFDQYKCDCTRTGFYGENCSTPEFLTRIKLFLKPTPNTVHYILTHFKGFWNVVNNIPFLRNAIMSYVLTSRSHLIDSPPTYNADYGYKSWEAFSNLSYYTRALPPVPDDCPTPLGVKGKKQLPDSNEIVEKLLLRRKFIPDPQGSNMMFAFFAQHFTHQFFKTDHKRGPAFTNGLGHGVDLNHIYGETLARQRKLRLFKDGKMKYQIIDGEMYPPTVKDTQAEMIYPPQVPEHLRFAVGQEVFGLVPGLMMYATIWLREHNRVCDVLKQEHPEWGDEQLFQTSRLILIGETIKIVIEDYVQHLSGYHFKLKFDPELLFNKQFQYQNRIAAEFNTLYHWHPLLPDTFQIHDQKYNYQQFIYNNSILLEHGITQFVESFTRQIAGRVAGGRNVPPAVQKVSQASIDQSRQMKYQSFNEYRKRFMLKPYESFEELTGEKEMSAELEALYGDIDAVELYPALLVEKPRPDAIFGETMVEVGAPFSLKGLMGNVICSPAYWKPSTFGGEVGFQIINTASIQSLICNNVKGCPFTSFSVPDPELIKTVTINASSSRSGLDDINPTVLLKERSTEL
Source text: as §1

[10] = rat, after 10 or 70 mg/kg oral or 10 mg/kg IV creatinine pronutrient

Chain of COX1 (P23219 24-599): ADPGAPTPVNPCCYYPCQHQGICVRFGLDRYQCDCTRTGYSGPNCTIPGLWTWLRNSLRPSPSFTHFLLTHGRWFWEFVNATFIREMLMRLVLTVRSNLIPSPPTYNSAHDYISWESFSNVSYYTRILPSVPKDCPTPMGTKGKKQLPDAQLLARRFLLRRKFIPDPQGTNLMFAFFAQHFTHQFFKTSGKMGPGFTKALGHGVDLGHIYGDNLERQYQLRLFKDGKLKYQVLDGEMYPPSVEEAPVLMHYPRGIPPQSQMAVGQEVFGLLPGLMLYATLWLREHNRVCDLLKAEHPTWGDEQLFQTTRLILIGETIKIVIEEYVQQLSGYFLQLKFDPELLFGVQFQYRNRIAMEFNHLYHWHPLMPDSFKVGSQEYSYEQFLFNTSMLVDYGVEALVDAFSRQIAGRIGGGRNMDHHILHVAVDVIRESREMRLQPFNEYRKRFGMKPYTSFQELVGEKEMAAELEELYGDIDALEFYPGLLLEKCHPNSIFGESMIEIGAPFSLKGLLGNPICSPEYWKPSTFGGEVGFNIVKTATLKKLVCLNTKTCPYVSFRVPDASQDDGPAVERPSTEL

In the case of `CN(CC(=O)OC(C)(C)C)C(=N)N.Cl` [CtB, creatine tert-butyl ester hydrochloride], the “Ratio (relative to CM)” value [1] is reported as at least 18, the solubility at 1.5 h [1] is reported as 389 mg/mL and the “creatinine accumulation compared with 1 mM creatinine” value [2] is reported as “greater; also recorded: almost double”. The “creatinine accumulation compared with 1 mM creatinine” value [3] was “greater”, the permeability coefficient ([4]; breast cancer patient CF80 6 month plasma, 24-hour treatment (2.78×10^−8 without CtB)) was 0.00963 ×10⁻⁶ cm/s and the permeability coefficient ([4]; breast cancer patient CF80 baseline plasma, 24-hour treatment (1.06×10^−8 without CtB)) was 0.00297 ×10⁻⁶ cm/s. The “permeability increases produced by plasma samples from cancer patients” value ([4]; addition of 1 mM) was “attenuated” and the “inhibition of prostaglandin (PGE2) release” value (hBMEC/d3 cells) was “as effective at inhibiting prostaglandin release as the known BR2 receptor antagonist HOE 140”.
For `CN1CC(=O)NC1=N` [Creatinine, creatinine], the AUC [5] is listed as 4600 ng·h/mL, the “Cmax (plasma creatinine)” value [6] is listed as 15300 ng/mL and the “Cmin (plasma creatinine)” value [6] is listed as 11300 ng/mL. The Tmax [6] was 1 h and the solubility [7] was 23 mg/mL (≈ 203 mM).
With `CCOC(=O)CCNC(=N)N` [Ethyl (α-guanido-methyl) ethonoate, ethyl (α-guanido-methyl) ethanoate] the “Ratio (relative to CM)” value [1] was over 8 and the solubility at 1.5 h [1] was 178 ± 7.2 mg/mL (≈ 1120 mM).
For `CN(CC(=O)OC1CCCCC1)C(=N)N` [Creatine Cyclohexyl Ester Tosylate, creatine cyclohexyl ester], the “Ratio (relative to CM)” value [1] was under 1.0 and the solubility at 1.5 h [1] was 15 to 20 mg/mL.
For `CCOC(=O)CN(C)C(=N)N` [CEE, creatine ethyl ester hydrochloride], the “Ratio (relative to CM)” value [1] was over 9, the solubility at 1.5 h [1] was 205 mg/mL and the “creatinine delivered to the plasma as compared to creatinine” value ([8]; high and low doses) was “twice as much”. The “creatine in plasma samples” value [8, 10] was “no detectable amount”, the “creatinine pronutrient in plasma samples” value [8, 10] was “Small but measurable amounts” and the “creatinine in plasma samples” value ([8]; rat, after creatinine pronutrient dosing, especially at the high dose) was “Substantial levels”. For the same molecule, the “permeability coefficient of IRdye 800” value ([9]; then 10 nM bradykinin (1.05×10^−8 without CEE)) was 0.00343 ×10⁻⁶ cm/s, the “permeability coefficient of IRdye 800” value ([9]; then 10 μM bradykinin (2.90×10^−8 without CEE)) was 0.0142 ×10⁻⁶ cm/s and the “PGE release in response to bradykinin” value (hBMEC/d3 cells) was “prevents PGE release”. For the same molecule, the “inhibition of prostaglandin (PGE2) release” value (hBMEC/d3 cells) was “as effective at inhibiting prostaglandin release as the known BR2 receptor antagonist HOE 140”, the “production of prostaglandins by COX1” value (COX1) was “unaffected” and the “production of prostaglandins by COX2” value (COX2) was “unaffected”.
For `CCOC(=O)CNC(=O)CN(C)C(=N)N` [Creatine Glycinamide Ethyl Ester HCl, creatine glycinamide ethyl ester], the “Ratio (relative to CM)” value [1] was over 29 and the solubility at 1.5 h [1] was over 600 mg/mL.
With `CC(C)CCOC(=O)CN(C)C(=N)N` [Creatine Isopentyl Ester HCl, creatine isopentyl ester hydrochloride] the “Ratio (relative to CM)” value [1] was over 29 and the solubility at 1.5 h [1] was over 600 mg/mL.
